From US12319699B2, “L-proline sulfonamide derivatives comprising pyrazolo[4,3-e]tetrazolo[4,5-b][1,2,4]triazine system, method of manufacturing thereof, uses thereof and pharmaceutical composition comprising the same” (UNIWERSYTET MEDYCZNY W BIALYMSTOKU, priority 2018, dated 2025)

Assays:
[1] = system: DLD-1 colorectal cancer cells; test: Decrease in mitochondrial membrane potential, JC-1 MitoScreen flow cytometry; assay type: cell-based, human; details: 24 hours
Description: (§1) DLD-1 human colorectal cancer cells (ATCC CCL-221, Manassas, VA, USA) were grown in DMEM (Dulbecco's Modified Eagle's Medium) supplemented with 10% fetal bovine serum (FBS), 2 mM glutamine, 50 U/ml penicillin, 50 μg/ml streptomycin at 37° C., in atmosphere containing 5% of CO2. Then the cells were counted in a hemocytometer and transferred in the amount of 1×10^6 cells per well in 1 ml of culture medium from Costar flasks (Sigma, USA) to Nunc 6-well plates (Wiesbaden, Germany). The cells were transferred using calcium-free phosphate buffer with the addition of 0.05% trypsin and 0.02% EDTA. […] Within the subsequent 24 hours the cells covered at least 80% of the surface of each plate well. The cells prepared in this manner were incubated with the examined compounds for 24 hours and then used for further experiments.
For the assessment of changes in mitochondrial potential JC-1 MitoScreen kit (BD Biosciences. USA) was used. DLD-1 and HT-29 cancer cells covering about 80% of the plate surface were incubated with the examined compounds according to the invention at specific concentrations in an incubator at 37° C. in 5% CO2 atmosphere for 24 hours. Both examined compounds according to the invention were used at a concentration of 1.5 μM and 3.0 μM. After the incubation period, the medium was removed, the buffer included in the kit was added and the cells after washing two times were suspended in a mixture of JC-1 dye (5,5′,6,6′-tetrachloro-1,1′,3,3′-tetraethylbenzimidazol carbocyanine iodide) with a buffer at a concentration of 10 μg/ml. Subsequently, the samples were incubated in darkness for 15 minutes, washed with PBS solution and subjected to immediate analysis with the use of BD FacsCanto II flow cytometer; the results were assessed with the use of BD FacsDiva software. In live intact cells JC-1 dye accumulates in mitochondria and forms orange fluorescing aggregates. A decrease in mitochondrial potential ΔΨm is characterized by disintegration of these aggregates and green fluorescence.

[2] = system: DLD-1 human colorectal cancer cells; test: DNA biosynthesis, [3H]-thymidine incorporation; assay type: cell-based; details: DLD-1, 24-hour incubation
Description: as §1
The effect of the examined compounds according to the invention on the process of DNA biosynthesis was assessed by measuring incorporation of [^3H]-thymidine into DNA of the examined cells. […] After 5 minutes, the cell lysate obtained was transferred to scintillation vials containing 2 ml of scintillation fluid and radioactivity was measured. […] The values from the examined samples were expressed as percentage of the control value. The significance level p was determined by the nonparametric Mann-Whitney U test by means of SigmaStat software. […]

[3] = system: HT-29 human colorectal cancer cells; test: Cytotoxicity, MTT assay (Carmichael's method), cell survival; assay type: cell-based; details: HT-29, 24-hour incubation
Description: HT-29 human colorectal cancer cells (ATCC HTB-38, Manassas, VA, USA) were cultured in McCoy's 5A medium supplemented with 10% fetal bovine serum (FBS), 2 mM glutamine, 50 U/ml penicillin, 50 μg/ml of streptomycin at 37° C., in atmosphere containing 5% CO2. Subsequently, the cells were counted in a hemocytometer and were transferred in the amount of 1×10^6 cells per well in 1 ml of culture medium from Costar flasks (Sigma, USA) to Nunc 6-well plates (Wiesbaden, Germany). The cells were transferred using calcium-free phosphate buffer with the addition of 0.05% trypsin and 0.02% EDTA. […] Within the subsequent 24 hours the cells covered at least 80% of the surface of each plate well. […]
Cytotoxicity of the examined compounds according to the invention was measured by Carmichael's method (Carmichael J et al, Cancer Res., 1987, 47:943-946) and cell viability was determined using the tetrazolium salt (MT) in MTT assay. […] In a cell lysate prepared in such manner absorbance at 630 nm was measured. The result of absorbance obtained in the control cell cultures was assumed to be 100%. The viability of cells incubated in the presence of the examined compounds was expressed as percentage of the control values. The significance level p was determined by the nonparametric Mann-Whitney U test by means of SigmaStat software. […]

Compound | decrease of ΔΨm, % of the cell population ([1]; DLD-1, 1.5 μM) [%] | decrease of ΔΨm, % of the cell population ([1]; DLD-1, 3.0 μM) [%] | IC50 [2] [µM] | IC50 [3] [µM]
COC(=O)C1CC(O)CN1S(=O)(=O)c1ccc(-n2nc(C)c3nc4nnnn4nc32)cc1 (centres unmarked) [Compound of Formula 3, Methyl 4-hydroxy-1-[4-(7-methyl-5H-pyrazolo[4,3-e]tetrazolo[4,5-b][1,2,4]triazyn-5-yl)phenylsulfonyl]pyrrolidine-2-carboxylate] | 49.5 | 71.3 | 1.55 ± 0.02 | 3.13 ± 0.02
COC(=O)C1CCCN1S(=O)(=O)c1ccc(-n2nc(C)c3nc4nnnn4nc32)cc1 (centres unmarked) [Compound of Formula 2, Methyl 1-[4-(7-methyl-5H-pyrazol[4,3-e]tetrazolo[4,5-b][1,2,4]triazyn-5-yl)phenylsulfonyl]pyrrolidine-2-carboxylate] | 48.9 | 63.8 | 0.56 ± 0.01 | 1.73 ± 0.03
